Here are results for ten compounds from patent US5733754A, “Enzyme and its use in preparing (S)-pipecolic acid” (Chiroscience Limited, priority 1993, dated 1998).

In assay [1] the test system is N-acyl-pipecolic acid acylase. Nature of the assay: Alternative substrates: activity of semi-purified enzyme preparation on N-acetylamino-acids. The class given is biochemical, Alcaligenes denitrificans. Particulars: 1 ml substrate 40 g/l + 0.5 ml enzyme + 0.5 ml 100 mM Tris buffer pH 7.5; 24-25° C., 1 hour. Here is the method: The sonicate supernatants were then used in the following biotransformation reactions. To 1 ml of the sonicate supernatants, 1 ml of 40 g/l solution of N-acetyl-rac-pipecolate, pH 7, was added in the presence of 0.02% sodium azide. The biotransformation reaction mixtures were incubated with shaking for 48 h at 25° C., after which samples were removed and analysed by HPLC. HPLC analysis was done using a 15 cm Hichrom S50DS2 column with an isocratic mobile phase of 30% methanol:70% 10 mM potassium phosphate buffer, pH 3, at a flow rate of 1 ml/min. The injection volume was 20 μl and the detection was at 240 nm, total run time was 10 minutes. Prior to loading on to the column, the sample was diluted 20-fold in the HPLC mobile phase and centrifuged. The analyses as shown by this procedure provided values of residual substrate concentrations. A substrate control was run in parallel with the sample reactions.
(§1) The activity of a semi-purified enzyme preparation, as described in Example 4, was tested on a range of alternative substrates. Various N-acetylamino-acid solutions were prepared at a concentration of 40 g/l in 100 mM Tris buffer at pH 7.5. Reactions were then set up using 1 ml of reaction substrate plus 0.5 ml enzyme plus 0.5 ml 100 mM Tris buffer, pH 7.5. The reaction mixtures were shaken at 24°-25° C. for 1 hour before being analysed for amino-acid formation. The extent of reaction for the N-acetylpipecolic acid and N-acetylproline biotransformations was determined using the HPLC methodology described in Example 1. The extent and enantioselectivity of the other biotransformations was determined using a Nucleosil Chiral-1 (ET250/8/4 with a buffer phase of 1 mM copper acetate at pH 5 in 5% methanol, and a flow rate of 0.8 ml/min, with detection at 254 nm. Samples were diluted 100-fold and areas compared to relevant standards.

Assay [2] concerns N-acylamino-acid acylase of EP-A-0416282. Particulars: cited from earlier work.
Assay [3] concerns N-acyl-pipecolic acid acylase (amino acylase). As to the kind of experiment: Alternative buffers: effect of high phosphate on the biotransformation. The class given is biochemical, Alcaligenes denitrificans. The note with it: for Amino-acid formed: pH 7.5. As for the experimental part: as §1
The acylase disclosed in EP-A-0416282 is inhibited by reaction in buffers containing phosphate at high concentrations. The effect of high phosphate on the biotransformation was determined using a similar methodology to that described in Example 6.

For assay [4], the system named is N-acetyl-pipecolic acid acylase activity. As to the kind of experiment: Use of inducer: flask cultures with additive, acylase activity of the cell extract. Particulars: for Specific (activity) / Volumetric Activity: additive in growth medium (5 g/l), extract used in 24 hour biotransformation of 20 g/l N-acetyl-(R,S)-pipecolic acid, 1U = release of 1 μmole pipecolic acid per minute. The class given is cell-based, Alcaligenes denitrificans. Here is the method:
It has been observed by other workers that an inducer must be added to the fermentation medium to obtain N-acyl-amino-acid acylase activity. This adds to the cost of producing the enzyme. Flask cultures were set up to determine the requirement for an inducer. Medium used was similar to that described in Table 1, except that the N-acetyl-L-phenylalanine was omitted, 1 g/l yeast extract was added and the following 4 variations were set up.
The final pH of all flasks was adjusted to pH 7.0 and a total of 50 ml added to 500 ml conical flasks. Following inoculation, the flasks were incubated at 25° C. with shaking for 19 hours. The cells were then collected by centrifugation, resuspended in 10 mM phosphate buffer, pH 7 and lysed by sonication. The released enzyme extract was then used in a 24 hour biotransformation of 20 g/l N-acetyl-(R,S)-pipecolic acid.
1U = release of 1 μmole pipecolic acid per minute

With `CC(=O)NC(Cc1ccc(C#N)cc1)C(=O)O` (racemic) [N-acetyl-(R,S)-4-cyanophenylalanine], in assay [1], the Amino-acid formed came out at 8.3 g/L.

In the case of `CC(=O)NC(C)C(=O)O` (racemic) [N-acetyl-(R,S)-alanine], the Amino-acid formed in assay [1] turned out to be 3.4 g/L. For the same compound, the “activity of the enzyme against substrate” value in assay [2] (enzyme of EP-A-0416282) was “non-detectable”.

Regarding `CC(=O)NC(CCC(=O)O)C(=O)O` (racemic) [N-acetyl-(R,S)-glutamic acid], in assay [1], the Amino-acid formed is 0.2 g/L.

Consider `CC(=O)NC(Cc1ccccc1)C(=O)O` (racemic) [N-acetyl-(R,S)-phenylalanine], for which the Amino-acid formed in assay [1] was 5.3 g/L. For the same compound, the “activity of the enzyme against substrate” value in assay [2] (enzyme of EP-A-0416282) is “non-detectable”.

Turning to `CC(=O)N1CCCCC1C(=O)O` (racemic) [N-acetyl-(R,S)-pipecolic acid], the Amino-acid formed in assay [3] (100 mM Phosphate), in assay [3] (100 mM Tris) and in assay [1] was 6.3 g/L in each case. Moreover, in assay [4], the “Specific (activity)” value came out at 0.086 U/mg protein. Besides, in assay [4], the “Volumetric Activity” value was determined as 0.017 U/ml.

Turning to `O=C[C@H](O)[C@@H](O)[C@H](O)[C@H](O)CO` [Glucose], the “N-acetyl-pipecolic acid acylase activity of the flask” value in assay [4] (additive 5 g/l in growth medium) is on record as “no N-acetyl-pipecolic acid acylase activity”. In addition, the “Volumetric Activity” value in assay [4] came out at 0.00 U/ml.

For the compound `CC(=O)N1CCC[C@H]1C(=O)O` [N-acetyl-(S)-proline], the Amino-acid formed in assay [3] (100 mM Phosphate), in assay [3] (100 mM Tris) and in assay [1] was 3.2 g/L throughout. In addition, in assay [4], the “Specific (activity)” value turned out to be 0.033 U/mg protein. The “Volumetric Activity” value in assay [4] is given as 0.042 U/ml.

In the case of `CC(=O)NCCCC[C@H](N)C(=O)O` [εN-acetyl-(S)-lysine], the Amino-acid formed in assay [1] turned out to be 0.0 g/L.

Consider N-acyl-pipecolic acid, for which the “activity of the enzyme relative to its activity on N-acetyl-proline” value in assay [2] (enzyme of EP-A-0416282) was “less than 5%”.

As for phosphate, the “inhibitory effect on the amino acylase” value in assay [3] (final phosphate concentration equal to or greater than 75 mM) is “no significant inhibitory effect”. Besides, the “inhibition of the acylase by buffer” value in assay [2] (buffers containing phosphate at high concentrations) was “inhibited”.
